According to PubChem BioAssay (NCI):
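Tested at 5 concentrations; 48 h exposure; 96-well plates; endpoints linearly interpolated, else capped at highest concentration. The concentration for 50% growth inhibition is given as GI50. Definition used: TGI = concentration required for complete inhibition of growth.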

Legend:
Experiment in all cases: DTP human tumour cell line panel, 48 h
LOX IMVI melanoma = system: LOX IMVI melanoma
OVCAR-8 ovarian = system: OVCAR-8 ovarian
HOP-92 NSCLC = system: HOP-92 NSCLC
U251 CNS = system: U251 CNS
HT29 colon = system: HT29 colon
LXFL 529 NSCLC = system: LXFL 529 NSCLC
SK-MEL-5 melanoma = system: SK-MEL-5 melanoma
MDA-MB-231 breast = system: MDA-MB-231 breast
DU-145 prostate = system: DU-145 prostate
DLD-1 colon = system: DLD-1 colon

SMILES	TGI (LOX IMVI melanoma) [µM]	TGI (OVCAR-8 ovarian) [µM]	TGI (HOP-92 NSCLC) [µM]	TGI (U251 CNS) [µM]	TGI (HT29 colon) [µM]	TGI (LXFL 529 NSCLC) [µM]	TGI (SK-MEL-5 melanoma) [µM]	TGI (MDA-MB-231 breast) [µM]	TGI (DU-145 prostate) [µM]	GI50 (LOX IMVI melanoma) [µM]	GI50 (OVCAR-8 ovarian) [µM]	GI50 (HOP-92 NSCLC) [µM]	GI50 (U251 CNS) [µM]	GI50 (MDA-MB-231 breast) [µM]	GI50 (HT29 colon) [µM]	GI50 (DU-145 prostate) [µM]	GI50 (SK-MEL-5 melanoma) [µM]	TGI (DLD-1 colon) [µM]
C=CCC(OCCOCC)c1cc(OCCOCC)ccc1OC (configuration not stated)	> 100	> 100	> 100	> 100	> 100	> 100	> 100	–	–	–	–	–	–	–	–	–	–	–
CN(C(=O)c1ccncc1)c1ccccc1	> 100	> 100	> 100	> 100	> 100	–	> 100	> 100	> 100	–	–	–	–	–	–	–	–	–
CSC1(SC2=NCCN2)SC2(NCCN2)S1	25.7	43	28.4	32.8	38.3	–	35	38.6	28.2	–	–	–	–	–	–	–	–	–
O=C(COc1cccc(/C=C2\COc3ccc(Cl)cc3C2=O)c1)c1ccc(Cl)cc1	13.2	37.5	13.4	26.7	20.2	–	25.3	21.1	27.8	3.2	15.8	0.536	13.8	4.08	7.69	14.7	12.8	–
COc1cc(/C=C/C(=O)c2sc(NNC(C)=O)nc2C)ccc1O	> 100	> 100	> 100	> 100	> 100	–	> 100	–	–	–	–	–	–	–	–	–	–	> 100
CC(C)(C#N)c1cc(C(=O)Nc2cc(Nc3ncccc3-c3ncnc4nc[nH]c34)ccc2F)cc(C(F)(F)F)c1	2.41	> 10	1.78	> 10	–	–	> 1.98	–	> 10	0.38	–	0.255	–	0.27	0.132	> 2.01	0.589	–
O=C(CN1CCN(c2ccccc2)CC1)N1CCN(c2nnc(-c3ccc(Cl)cc3)c(-c3ccc(Cl)cc3)n2)CC1	41.4	> 100	27.9	31	24	–	29.6	> 100	> 100	11.5	16.3	12.1	8.16	21.9	4.04	29.2	6.03	–
c1ccc(CSc2nnc3c4ccccc4c4ccccc4c3n2)cc1	> 100	> 100	59.7	> 100	> 100	–	> 100	> 100	> 100	–	–	–	–	–	–	–	–	–
Cc1ccc2c(c1)C(=O)c1c-2n(CCCBr)c(=O)c2cc([N+](=O)[O-])ccc12	> 100	> 100	> 100	> 100	> 100	–	> 100	> 100	> 100	17.9	> 100	29.4	24.8	58.8	62.8	49.8	33	–
CCCCNC(=O)NS(=O)(=O)c1ccc(N2N=C(c3cc(C)ccc3C)CC2c2cc(OC)c(OC)c(OC)c2)cc1 (configuration not stated)	4.75	10.5	4.63	5.62	5.04	–	7.01	6.39	11.1	2.24	3.03	1.27	2.11	2.36	2.42	3.46	2.54	–
COc1ccc2c(c1)C(C)Cc1c(Cl)nc(C)nc1N2C (configuration not stated)	23.9	15.4	29.5	15.9	8.92	–	11.2	34.9	33.5	3.12	3.58	3.95	3.15	4.34	2.2	3.72	2.55	–
COc1cc(C2CC(c3ccc(N(C)C)cc3)=NN2C(C)=O)cc(OC)c1OC (configuration not stated)	> 100	> 100	> 100	> 100	> 39.5	–	17.6	> 100	> 35	2.28	6.13	29.6	1.65	4.74	0.909	2.29	0.804	–
Cc1[nH]c2ccccc2c1CCNCc1ccc(/C=C/C(=O)NO)cc1	0.03	0.178	< 0.01	0.0333	10.6	–	0.0275	0.162	0.0532	0.0128	< 0.01	< 0.01	< 0.0108	0.0284	< 0.01	< 0.01	< 0.0113	–
O=C(N/N=C/c1cc([N+](=O)[O-])ccc1O)c1cccc2ccccc12	53.4	> 100	13	64.1	> 100	–	14.3	> 100	> 100	2.02	2.88	1.26	2.46	7.6	5.74	6.2	3.15	–
Cn1ccnc1C(=O)/C=C/c1ccc(CC(=O)Nc2ccc(C(F)(F)F)cc2)cc1	4.37	> 16.7	5.66	3.93	9.02	–	11.2	15.2	6.42	2.18	4.9	2.4	1.89	4.02	3.96	2.97	3.83	–
CSc1ccccc1C#Cc1ccccc1C#CCCCCO	19.2	41.7	25.1	22.7	19.2	–	27.6	13.2	18	5.87	18.7	9.76	10.8	2.57	5.46	4.73	14	–
O=C1NC2C=CN(Cc3ccccc3)C=C2C(=O)N2CCCC12 (configuration not stated)	–	> 100	> 100	> 100	> 100	> 100	> 100	–	–	–	–	–	–	–	–	–	–	> 100
